In patent US20040024024A1, “Aromatic sulfone hydroxamates and their use as protease inhibitors” (priority 2001, published 2004):

Assays:
Experiment in all cases: In vitro MMP inhibition, IC50 determination (fluorogenic substrate I)
Type in all cases: biochemical
Human recombinant MMP-13 = molecular target: T1, Human recombinant MMP-13 (Homo sapiens, UniProt P45452)
T1 construct: made in house; host or cells: baculovirus / insect cells
Outline: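 Fluorescence at 415 nm (excitation 328 nm) reports Gly-Leu cleavage of 4 μM quenched methoxycoumarin peptide substrate I. Human recombinant MMP-13, activated by trypsin or APMA, was incubated at room temperature with varied inhibitor concentrations in pH 7.5 Tris/NaCl/CaCl2 buffer; IC50 derived from reduced fluorescence.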

Human recombinant MMP-9 = molecular target: T2, Human recombinant MMP-9 (Homo sapiens, UniProt P14780)
T2 construct: made in house; host or cells: MMP-9-transfected HT1080 cells (spent media)
T2 sequence (P14780 107-707 limits assumed): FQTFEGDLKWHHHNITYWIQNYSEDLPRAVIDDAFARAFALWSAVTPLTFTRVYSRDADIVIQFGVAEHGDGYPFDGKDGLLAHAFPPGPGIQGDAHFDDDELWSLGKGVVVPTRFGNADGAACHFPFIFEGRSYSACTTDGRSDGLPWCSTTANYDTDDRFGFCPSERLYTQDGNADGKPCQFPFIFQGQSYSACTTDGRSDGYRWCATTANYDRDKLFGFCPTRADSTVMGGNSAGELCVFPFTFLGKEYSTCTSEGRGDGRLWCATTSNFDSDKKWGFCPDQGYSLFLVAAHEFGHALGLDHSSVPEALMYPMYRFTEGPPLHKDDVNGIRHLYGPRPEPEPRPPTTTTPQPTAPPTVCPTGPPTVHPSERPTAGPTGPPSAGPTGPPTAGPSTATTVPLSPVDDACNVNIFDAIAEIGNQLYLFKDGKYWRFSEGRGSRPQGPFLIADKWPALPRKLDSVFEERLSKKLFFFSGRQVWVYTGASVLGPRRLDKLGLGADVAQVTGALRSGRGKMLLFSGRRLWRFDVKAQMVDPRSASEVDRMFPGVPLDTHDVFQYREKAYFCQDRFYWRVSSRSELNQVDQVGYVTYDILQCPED
Method: (§1) Several hydroxamates and salts thereof were analyzed in in vitro assays to determine their ability to inhibit the MMP cleavage of peptide substrates. Inhibition (Ki) and IC50 constants were calculated from the assayed hydroxamate-MMP interactions.
(§2) Human recombinant MMP-1, MMP-2, MMP-9, MMP-13, and MMP-14 were used in this assay. All enzymes were prepared in Assignee's laboratories following usual laboratory procedures. Protocols for the preparation and use of these enzymes are available in the scientific literature. See, e.g., Enzyme Nomenclature (Academic Press, San Diego, Calif., 1992) (and the citations therein). See also, Frije et al., J. Biol. Chem., 26(24), 16766-73 (1994).
The MMP-9 proenzyme was purified by gelatin Sepharose chromatography from spent media of MMP-9-transfected HT1080 cells provided by Dr. Howard Welgus of Washington University (St. Louis, Mo.).
(§3) All MMPs were activated using 4-aminophenylmercuric acetate (“APMA”, Sigma Chemical, St. Louis, Mo.) or trypsin. MMP-9 also was activated using human recombinant MMP-3 (purified in Assignee's laboratory following standard cloning and purification techniques).
(§4) Two fluorogenic, methoxycoumarin-containing polypeptide substrates were used in the MMP inhibition assays:
(§5) MCA-ProLeuGlyLeuDpaAlaArgNH2 (I)
(§6) Here, “Dpa” is 3-(2,4-dinitrophenyl)-L-2,3-diaminopropionyl group, and “MCA” is 7-methoxycoumarin-4-yl acetyl. Substrate (I) was purchased from Baychem (Redwood City, Calif.), and substrate II was prepared Assignee's laboratory. Substrate I was used in the IC50 determination assays, while substrate II was used in the Ki determination assays. In the absence of MMP inhibitory activity, either substrate is cleaved at the Gly-Leu peptide bond. This cleavage separates the highly fluorogenic peptide from the 2,4-dinitrophenyl quencher, thus resulting in increase of fluorescent intensity.
(§7) The stock solutions of the assayed hydroxamates (or salts thereof) were prepared in 1% dimethyl sulfoxide (DMSO). These stock solutions were diluted in Buffer A (100 mM Tris-HCl, 100 mM NaCl, 10 mM CaCl2, 0.05% polyoxyethylene 23 lauryl ether, pH 7.5) to obtain solutions with different hydroxamate concentrations, i.e., assay solutions with different concentrations of the assayed MMP inhibitory compound. The experiment controls contained the same amount of Buffer A/DMSO as the assayed sample, but contained no hydroxamate (or salt thereof).
(§8) The assays from which the IC50 determinations were made were performed as follows. The MMPs were activated with either trypsin or APMA (4-aminophenylmercuric acetate, Sigma Chemical, St. Louis, Mo.). The assayed hydroxamate samples were, incubated in Microfluorrm White Plates (Dynatech, Chantilly, VA) and analyzed on a Perkin Elmer L550 plate reader (Norwalk, Conn.). The excitation wavelength was 328 nm, and the emission wavelength—415 nm. All samples (assayed hydroxamates and controls) were incubated in separate plates at room temperature in the presence of 4 μM of MMP substrate (I). As stated in the previous paragraph, samples containing varying concentrations of the same assayed hydroxamate were prepared. Inhibition was measured as a reduction in fluorescent intensity as a function of MMP inhibitor concentration.

Human recombinant MMP-1 = molecular target: T3, Human recombinant MMP-1 (Homo sapiens, UniProt P03956)
T3 construct: made in house; host or cells: MMP-1-transfected HT-1080 cells (spent media)
T3 sequence (P03956 100-469): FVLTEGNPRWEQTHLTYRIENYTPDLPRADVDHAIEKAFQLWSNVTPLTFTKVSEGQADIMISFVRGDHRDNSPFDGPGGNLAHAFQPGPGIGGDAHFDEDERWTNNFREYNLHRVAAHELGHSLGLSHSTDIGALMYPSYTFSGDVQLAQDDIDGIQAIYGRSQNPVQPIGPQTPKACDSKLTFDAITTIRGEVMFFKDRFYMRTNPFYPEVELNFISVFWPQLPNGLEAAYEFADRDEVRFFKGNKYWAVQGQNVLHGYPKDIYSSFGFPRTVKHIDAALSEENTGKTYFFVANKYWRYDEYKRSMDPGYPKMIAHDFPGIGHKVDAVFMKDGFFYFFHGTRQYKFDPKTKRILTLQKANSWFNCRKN
Method: as §1, §2
The MMP-1 proenzyme was purified from the spent media of MMP-1-transfected HT-1080 cells provided by Dr. Harold Welgus of Washington University (St. Louis, Mo.). The protein was purified on a zinc chelating column.
as §3, §4, §5, §6, §7, §8

Human recombinant MMP-14 = molecular target: T4, Human recombinant MMP-14 (Homo sapiens, UniProt P50281)
T4 construct: The catalytic domain enzyme was expressed in E. coli inclusion bodies, solubilized in urea; made in house
Method: as §1, §2
The MMP-14 full length cDNA was provided by Dr. Gregory Goldberg of Washington University (St. Louis, Mo.). The catalytic domain enzyme was expressed in E. coli inclusion bodies, solubilized in urea, purified on a preparative […] reverse phase HPLC column, and then refolded in the presence of zinc acetate and purified for use.
as §3, §4, §5, §6, §7, §8

Human recombinant MMP-2 = molecular target: T5, Human recombinant MMP-2 (Homo sapiens, UniProt P08253)
T5 construct: made in house; host or cells: MMP-2-transfected p2AHT2 cells
T5 sequence (P08253 110-660): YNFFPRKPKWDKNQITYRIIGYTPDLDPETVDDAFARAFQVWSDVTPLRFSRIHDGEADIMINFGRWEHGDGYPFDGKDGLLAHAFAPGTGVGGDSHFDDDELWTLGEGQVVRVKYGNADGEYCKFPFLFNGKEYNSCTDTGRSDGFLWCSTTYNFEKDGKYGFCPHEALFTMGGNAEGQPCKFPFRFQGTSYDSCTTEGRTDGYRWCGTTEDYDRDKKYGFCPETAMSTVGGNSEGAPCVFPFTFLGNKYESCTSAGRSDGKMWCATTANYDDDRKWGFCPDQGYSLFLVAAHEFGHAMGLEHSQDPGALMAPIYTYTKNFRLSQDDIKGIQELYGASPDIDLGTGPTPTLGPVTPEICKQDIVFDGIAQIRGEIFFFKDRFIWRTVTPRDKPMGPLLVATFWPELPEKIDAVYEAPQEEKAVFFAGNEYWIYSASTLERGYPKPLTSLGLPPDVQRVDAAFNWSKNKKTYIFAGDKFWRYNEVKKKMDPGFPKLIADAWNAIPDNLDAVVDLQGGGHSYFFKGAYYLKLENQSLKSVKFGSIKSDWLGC
Outline: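 APMA- or trypsin-activated recombinant MMP-2 was incubated at room temperature with serial inhibitor dilutions in Tris buffer pH 7.5 (100 mM NaCl, 10 mM CaCl2, 0.05% Brij), with DMSO from 1% stocks, and 4 μM substrate I. Cleavage was read by fluorescence at 328/415 nm; IC50 was taken from the loss of fluorescence versus inhibitor concentration.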

[1] = value outside parentheses (Ki in parenthesis)

| Compound | IC50 (Human recombinant MMP-13; [1]) | IC50 (Human recombinant MMP-2; [1]) | IC50 (Human recombinant MMP-1; [1]) | further results |
| --- | --- | --- | --- | --- |
| O=C1CN(c2ccccc2)C(=O)N1CCCOc1ccc(S(=O)(=O)C2(C(=O)NO)CCOCC2)cc1 [Example 174] | – | – | – | IC50 (Human recombinant MMP-13; value outside parenthesis): 5.2 nM; IC50 (Human recombinant MMP-9; value outside parenthesis): 4020 nM; IC50 (Human recombinant MMP-1; value outside parenthesis): > 10000 nM; IC50 (Human recombinant MMP-14; value outside parenthesis): > 10000 nM |
| O=C1CN(c2ccccc2)C(=O)N1CCCOc1ccc(S(=O)(=O)C2(C(=O)NO)CCOCC2)cc1 [Example 263] | – | – | – | IC50 (Human recombinant MMP-13; value outside parenthesis): 3.8 nM; IC50 (Human recombinant MMP-9; value outside parenthesis): 3270 nM |
| CN(C)c1ccc(C(=O)CCCCOc2ccc(S(=O)(=O)C3(C(=O)NO)CCN(C4CC4)CC3)cc2)cc1 [Example 267] | – | – | – | IC50 (Human recombinant MMP-9; value outside parenthesis): 107 nM; IC50 (Human recombinant MMP-1; value outside parenthesis): > 10000 nM; IC50 (Human recombinant MMP-2; value outside parenthesis): 18.5 nM; IC50 (Human recombinant MMP-14; value outside parenthesis): > 10000 nM |
| COc1ccc(SCCCCOc2ccc(S(=O)(=O)C3(C(=O)NO)CCOCC3)cc2)cc1 [Example 429] | 0.5 nM | 6.5 nM | – | IC50 (Human recombinant MMP-9; [1]): > 10000 nM; IC50 (Human recombinant MMP-14; [1]): > 10000 nM |
| CC(C)(COc1ccc(S(=O)(=O)C2(C(=O)NO)CCOCC2)cc1)CSc1ccc(OC(F)(F)F)cc1 [Example 435] | 500 nM | > 10000 nM | > 10000 nM | – |
| COc1cccc(SCC(C)(C)COc2ccc(S(=O)(=O)C3(C(=O)NO)CCOCC3)cc2)c1 [Example 436] | 100 nM | 1500 nM | > 10000 nM | – |
| O=C(NO)C1(S(=O)(=O)c2ccc(OCCCOCc3cc(C(F)(F)F)cc(C(F)(F)F)c3)cc2)CCOCC1 [Example 454] | 27 nM | 165 nM | > 10000 nM | – |
| CN(CCCC(=O)O)c1ccc(S(=O)(=O)C2(C(=O)NO)CCOCC2)cc1 [Example 457] | > 10000 nM | > 10000 nM | > 10000 nM | – |
| COC(=O)CCCN(C)c1ccc(S(=O)(=O)C2(C(=O)NO)CCOCC2)cc1 [Example 458] | 1400 nM | 3500 nM | > 10000 nM | – |
| CCCCCN(C)c1ccc(S(=O)(=O)C2(C(=O)NO)CCOCC2)cc1 [Example 459] | 670 nM | 700 nM | > 10000 nM | – |
| CC(C)OCCCNc1ccc(S(=O)(=O)C2(C(=O)NO)CCOCC2)cc1 [Example 461] | 590 nM | 2200 nM | > 10000 nM | – |
| CC(C)(CCc1ccccc1)Oc1ccc(S(=O)(=O)C2(C(=O)NO)CCOCC2)cc1 [Example 468] | 1500 nM | 2500 nM | > 10000 nM | – |
| CC(CCOc1ccc(S(=O)(=O)C2(C(=O)NO)CCOCC2)cc1)CC(C)(C)C (stereo not drawn) [Example 469] | 60 nM | 145 nM | > 10000 nM | – |
| CC(C)=CCCC(C)CCOc1ccc(S(=O)(=O)C2(C(=O)NO)CCOCC2)cc1 (stereo not drawn) [Example 470] | 3 nM | 7 nM | > 10000 nM | – |
| CC(C)=CC1C(COc2ccc(S(=O)(=O)C3(C(=O)NO)CCOCC3)cc2)C1(C)C (stereo not drawn) [Example 471] | 120 nM | 270 nM | > 10000 nM | – |
| COC(C)(C)CCCC(C)CCOc1ccc(S(=O)(=O)C2(C(=O)NO)CCOCC2)cc1 (stereo not drawn) [Example 474] | 3 nM | 12 nM | > 10000 nM | – |
| CC1CCCCC1COc1ccc(S(=O)(=O)C2(C(=O)NO)CCOCC2)cc1 (stereo not drawn) [Example 477] | 2 nM | 1.5 nM | 1300 nM | – |
| O=C(NO)C1(S(=O)(=O)c2ccc(OCCOCc3cccnc3)cc2)CCOCC1 [Example 517] | – | – | – | IC50 (Human recombinant MMP-9; value outside parentheses): 138 nM; IC50 (Human recombinant MMP-1; value outside parentheses): > 10000 nM; IC50 (Human recombinant MMP-2; value outside parentheses): 34.7 nM; IC50 (Human recombinant MMP-14; value outside parentheses): > 10000 nM |
| O=C(NO)C1(S(=O)(=O)c2ccc(OCCOCc3cccnc3)cc2)CCOCC1 [Example 518] | – | – | – | IC50 (Human recombinant MMP-9; value outside parentheses): 115 nM; IC50 (Human recombinant MMP-1; value outside parentheses): > 10000 nM; IC50 (Human recombinant MMP-2; value outside parentheses): 26.4 nM; IC50 (Human recombinant MMP-14; value outside parentheses): 967 nM |
| O=C(Cc1cccs1)NCCOc1ccc(S(=O)(=O)C2(C(=O)NO)CCOCC2)cc1 [Example 617] | – | – | – | IC50 (Human recombinant MMP-13; value outside parentheses): 0.6 nM; IC50 (Human recombinant MMP-9; value outside parentheses): 413 nM; IC50 (Human recombinant MMP-2; value outside parentheses): 0.8 nM; IC50 (Human recombinant MMP-14; value outside parentheses): 4130 nM |
| CC(=O)c1ccc(OCCOc2ccc(S(=O)(=O)C3(C(=O)NO)CCOCC3)cc2)cc1 [Example 659] | – | – | – | IC50 (Human recombinant MMP-13; value outside parentheses): 0.41 nM; IC50 (Human recombinant MMP-9; value outside parentheses): 47.1 nM; IC50 (Human recombinant MMP-1; value outside parentheses): > 10000 nM; IC50 (Human recombinant MMP-2; value outside parentheses): 3.91 nM |
